Source: patent US20080255099A1 (priority 2004, published 2008)
pIC50: −log10 of the molar value. Like-named read-outs stand apart in the source and are kept apart here.

Experiments:
[1] = system: VEGF promoter; assay: Luciferase assay for inhibition of the VEGF promoter in Hep3B-VEGF Luciferase cells; type: cell-based, human; conditions: deferoxamine 100 μM, 18-20 h, read-out: IC50 for inhibition of luciferase signal (VEGF promoter)
[2] = system: secreted VEGF; assay: Secreted VEGF ELISA test in Hep3B-VEGF Luciferase cells under deferoxamine-induced hypoxia; type: cell-based, human; conditions: deferoxamine 100 μM, 18-20 h, read-out: IC50 for inhibition of secreted VEGF (ELISA)
[3] = biological target: T1, Biot-Hif-1α^786-826/GST-p300^323/423 (Homo sapiens, UniProt Q09472); assay: Inhibition of Hif-1α/p300 interaction, DELFIA fluorescence assay; type: binding; conditions: for inhibition of the interaction between Hif-1α and p300 (in words): fluorescency assay adapted from Freedman et al.
T1 construct: the p300 region comprised between the 323-423 aminoacids; made in house; host or cells: E. coli BL21 (DE3), vector pGEX-4T-1

[4] = system: HeLa; conditions: HeLa cells; T. Saito et al. 1985; cited from earlier work
[5] = system: tumor growth; conditions: tumor-bearing mice; Kung et al. 2004; cited from earlier work

T1 sequence (Q09472 323-423): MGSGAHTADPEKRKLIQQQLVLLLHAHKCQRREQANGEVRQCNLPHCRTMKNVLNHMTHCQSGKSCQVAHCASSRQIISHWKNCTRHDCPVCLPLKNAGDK

For gliotoxin, the pIC50 [1] was 7.30, the pIC50 [2] was 6.70 and the “inhibition of the interaction between Hif-1α and p300 (in words)” value [3] was “able to inhibit the interaction between Hif-1α and p300”.
In the case of CN1C(=O)[C@@]23CC4([C@]56C[C@@]78SS[C@@](CO)(C(=O)N7[C@H]5Nc5ccccc56)N(C)C8=O)c5ccccc5N[C@@H]4N2C(=O)[C@]1(CO)SS3 (stereo partly shown) [chaetocin], the pIC50 ([1]; Homo sapiens) is listed as 7.40, the “cytotoxic activity IC50” value [4] is listed as “about 0.03 μg/mL” and the pIC50 ([2]; Homo sapiens) is listed as 7.00. The pIC50 [3] was 4.90 and the “inhibition of the interaction between Hif-1α and p300 (in words)” value [3] was “able to inhibit the interaction between Hif-1α and p300”.
In the case of CN1C(=O)[C@]2(Cc3cn(C45C[C@@]67SS[C@@](CO)(C(=O)N6[C@H]4Nc4ccccc45)N(C)C7=O)c4ccccc34)SS[C@@]1(CO)C(=O)N2C (stereo partly shown) [chaetomin], the “tumor growth and hypoxia-induced transcription in the tumor (in words)” value [5] is given as “inhibits hypoxia-induced transcription in the tumor and tumor growth”.
In the case of CN1C(=O)[C@]23SS[C@@]1(CO)C(=O)N2[C@H]1Nc2ccccc2C1([C@@]12c4ccccc4N[C@@H]1N1C(=O)[C@]4(CO)SS[C@]1(C(=O)N4C)[C@H]2O)[C@@H]3O (stereo partly drawn) [11α,11α′-dihydroxy Chaetocin, reference compound], the “cytotoxic activity IC50” value [4] is given as “about 0.03 μg/mL”.
